Data taken from the kinase profiling compilation of Christmann-Franck et al. (2016).

Experiments:
Test in all cases: radiometric filter-binding kinase assay, Kinase HotSpot
Conditions in all cases: compound 0.5 µM; ATP 10 µM
TSSK2 (human) = TSSK2 (human) (UniProt Q96PF2)
PDGFRA (human) = PDGFRA (human) (UniProt P16234)
IRAK4 (human) = IRAK4 (human) (UniProt Q9NWZ3)
STK3 (human) = STK3 (human) (UniProt Q13188)
CAMK1G (human) = CAMK1G (human) (UniProt Q96NX5)
SYK (human) = SYK (human) (UniProt P43405)
TAOK3 (human) = TAOK3 (human) (UniProt Q9H2K8)
PRKACA (human) = PRKACA (human) (UniProt P17612)
CDK2 CCNA2 (human) = CDK2 CCNA2 (human) (UniProt P24941+P20248)
CDK3 CCNE1 (human) = CDK3 CCNE1 (human) (UniProt Q00526+P24864)
SLK (human) = SLK (human) (UniProt Q9H2G2)
HCK (human) = HCK (human) (UniProt P08631)
TBK1 (human) = TBK1 (human) (UniProt Q9UHD2)
Chain of TBK1 (human) (Q9UHD2 whole entry, looked up): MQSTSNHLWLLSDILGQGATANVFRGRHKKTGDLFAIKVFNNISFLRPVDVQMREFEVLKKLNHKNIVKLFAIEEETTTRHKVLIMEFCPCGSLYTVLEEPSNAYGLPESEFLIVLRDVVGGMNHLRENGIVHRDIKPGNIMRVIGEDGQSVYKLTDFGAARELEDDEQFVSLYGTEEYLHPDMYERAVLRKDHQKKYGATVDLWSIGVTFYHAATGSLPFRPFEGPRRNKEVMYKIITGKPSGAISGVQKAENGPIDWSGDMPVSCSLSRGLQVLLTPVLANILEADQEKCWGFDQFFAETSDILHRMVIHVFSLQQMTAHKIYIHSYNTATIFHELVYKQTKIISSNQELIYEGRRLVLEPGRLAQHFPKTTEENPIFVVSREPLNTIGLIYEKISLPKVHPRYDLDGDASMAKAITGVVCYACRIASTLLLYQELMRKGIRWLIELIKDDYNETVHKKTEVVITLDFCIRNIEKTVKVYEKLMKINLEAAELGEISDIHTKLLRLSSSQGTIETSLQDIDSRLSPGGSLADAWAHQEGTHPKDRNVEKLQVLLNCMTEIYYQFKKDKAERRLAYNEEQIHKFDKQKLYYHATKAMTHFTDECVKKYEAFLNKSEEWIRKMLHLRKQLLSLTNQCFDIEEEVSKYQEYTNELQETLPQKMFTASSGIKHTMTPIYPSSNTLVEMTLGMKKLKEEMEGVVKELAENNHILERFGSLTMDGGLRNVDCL

EPHB2 (human) = EPHB2 (human) (UniProt P29323)
AKT2 (human) = AKT2 (human) (UniProt P31751)
Chain of AKT2 (human) (P31751 whole entry, looked up): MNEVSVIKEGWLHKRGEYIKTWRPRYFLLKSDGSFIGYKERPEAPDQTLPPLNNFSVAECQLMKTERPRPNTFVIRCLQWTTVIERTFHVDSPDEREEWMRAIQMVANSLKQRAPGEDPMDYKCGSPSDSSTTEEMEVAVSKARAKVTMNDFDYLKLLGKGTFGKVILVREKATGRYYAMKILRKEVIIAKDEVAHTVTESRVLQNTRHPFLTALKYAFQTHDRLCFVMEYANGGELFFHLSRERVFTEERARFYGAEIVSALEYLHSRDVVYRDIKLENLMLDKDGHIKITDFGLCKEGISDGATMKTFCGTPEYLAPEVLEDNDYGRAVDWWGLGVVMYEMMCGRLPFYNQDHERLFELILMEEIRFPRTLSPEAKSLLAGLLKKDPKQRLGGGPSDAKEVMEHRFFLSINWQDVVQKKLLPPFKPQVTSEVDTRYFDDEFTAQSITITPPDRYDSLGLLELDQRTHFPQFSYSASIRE

MKNK2 (human) = MKNK2 (human) (UniProt Q9HBH9)
PRKCB2 (human) = PRKCB2 (human) (UniProt P05771)
PRKG2 (human) = PRKG2 (human) (UniProt Q13237)
Chain of PRKG2 (human) (Q13237 whole entry, looked up): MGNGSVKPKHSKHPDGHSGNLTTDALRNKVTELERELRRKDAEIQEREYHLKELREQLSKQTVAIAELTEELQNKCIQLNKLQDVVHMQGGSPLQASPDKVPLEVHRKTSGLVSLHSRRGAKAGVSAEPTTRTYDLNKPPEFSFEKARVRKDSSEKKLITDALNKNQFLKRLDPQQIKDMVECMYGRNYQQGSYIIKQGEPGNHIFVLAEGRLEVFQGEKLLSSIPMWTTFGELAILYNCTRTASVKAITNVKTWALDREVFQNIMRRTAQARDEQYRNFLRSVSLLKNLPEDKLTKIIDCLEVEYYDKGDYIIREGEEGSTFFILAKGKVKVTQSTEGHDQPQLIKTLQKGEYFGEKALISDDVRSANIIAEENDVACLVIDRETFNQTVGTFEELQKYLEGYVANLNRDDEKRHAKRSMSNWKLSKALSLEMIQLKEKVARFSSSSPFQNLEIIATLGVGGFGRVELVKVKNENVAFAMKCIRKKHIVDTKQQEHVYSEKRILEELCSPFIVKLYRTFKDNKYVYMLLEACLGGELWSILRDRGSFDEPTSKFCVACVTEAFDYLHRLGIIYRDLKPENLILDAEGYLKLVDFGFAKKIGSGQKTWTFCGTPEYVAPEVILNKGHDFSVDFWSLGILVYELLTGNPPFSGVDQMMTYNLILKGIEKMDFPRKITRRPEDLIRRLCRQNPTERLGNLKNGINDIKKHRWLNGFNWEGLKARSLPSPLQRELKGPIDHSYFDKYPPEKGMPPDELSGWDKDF

STK10 (human) = STK10 (human) (UniProt O94804)
TGFBR2 (human) = TGFBR2 (human) (UniProt P37173)
CAMK2B (human) = CAMK2B (human) (UniProt Q13554)
PRKX (human) = PRKX (human) (UniProt P51817)
Chain of PRKX (human) (P51817 whole entry, looked up): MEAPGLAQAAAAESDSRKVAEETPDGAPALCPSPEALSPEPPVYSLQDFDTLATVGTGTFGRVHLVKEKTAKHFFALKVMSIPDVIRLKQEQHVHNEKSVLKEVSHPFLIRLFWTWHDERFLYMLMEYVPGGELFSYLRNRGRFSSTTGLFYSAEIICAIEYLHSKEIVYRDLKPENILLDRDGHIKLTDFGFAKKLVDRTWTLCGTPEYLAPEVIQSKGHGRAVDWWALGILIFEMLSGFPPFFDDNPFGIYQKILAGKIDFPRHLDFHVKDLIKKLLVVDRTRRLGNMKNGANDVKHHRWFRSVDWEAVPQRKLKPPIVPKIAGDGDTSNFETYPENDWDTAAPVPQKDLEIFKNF

CHEK1 (human) = CHEK1 (human) (UniProt O14757)
DAPK1 (human) = DAPK1 (human) (UniProt P53355)
FLT3 (human) = FLT3 (human) (UniProt P36888)
Chain of FLT3 (human) (P36888 whole entry, looked up): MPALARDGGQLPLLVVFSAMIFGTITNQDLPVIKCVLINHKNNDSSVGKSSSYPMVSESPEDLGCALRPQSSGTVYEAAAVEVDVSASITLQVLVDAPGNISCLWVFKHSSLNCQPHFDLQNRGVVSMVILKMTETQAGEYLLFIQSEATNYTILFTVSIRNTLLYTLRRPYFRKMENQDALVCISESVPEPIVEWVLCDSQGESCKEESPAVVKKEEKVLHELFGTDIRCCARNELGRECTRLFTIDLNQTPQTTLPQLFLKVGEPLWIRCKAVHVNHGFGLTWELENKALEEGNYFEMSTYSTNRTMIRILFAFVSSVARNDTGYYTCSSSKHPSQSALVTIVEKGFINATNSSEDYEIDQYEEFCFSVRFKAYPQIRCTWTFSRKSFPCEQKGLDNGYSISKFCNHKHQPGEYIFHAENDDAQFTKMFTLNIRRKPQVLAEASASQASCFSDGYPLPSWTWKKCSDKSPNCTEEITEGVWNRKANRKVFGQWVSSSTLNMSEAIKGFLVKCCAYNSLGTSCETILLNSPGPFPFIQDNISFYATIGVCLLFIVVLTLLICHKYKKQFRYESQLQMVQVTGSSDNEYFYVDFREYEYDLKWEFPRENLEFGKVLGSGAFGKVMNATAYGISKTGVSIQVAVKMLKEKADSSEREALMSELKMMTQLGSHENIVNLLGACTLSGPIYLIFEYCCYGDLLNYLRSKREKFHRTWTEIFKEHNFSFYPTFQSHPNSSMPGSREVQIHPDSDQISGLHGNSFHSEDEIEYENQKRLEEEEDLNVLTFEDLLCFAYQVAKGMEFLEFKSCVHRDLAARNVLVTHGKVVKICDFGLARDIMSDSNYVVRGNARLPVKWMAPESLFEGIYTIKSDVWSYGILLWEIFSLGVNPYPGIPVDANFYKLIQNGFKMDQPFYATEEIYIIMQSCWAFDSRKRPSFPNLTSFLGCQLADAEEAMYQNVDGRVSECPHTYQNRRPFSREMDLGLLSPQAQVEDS

ROCK1 (human) = ROCK1 (human) (UniProt Q13464)
PRKCA (human) = PRKCA (human) (UniProt P17252)
JAK2 JH1 JH2 (human) = JAK2 JH1 JH2 (human) (UniProt O60674)
TYRO3 (human) = TYRO3 (human) (UniProt Q06418)
TGFBR1 (human) = TGFBR1 (human) (UniProt P36897)
CDK4 CCND1 (human) = CDK4 CCND1 (human) (UniProt P24385+P11802)
INSRR (human) = INSRR (human) (UniProt P14616)
CLK1 (human) = CLK1 (human) (UniProt P49759)
Chain of CLK1 (human) (P49759 whole entry, looked up): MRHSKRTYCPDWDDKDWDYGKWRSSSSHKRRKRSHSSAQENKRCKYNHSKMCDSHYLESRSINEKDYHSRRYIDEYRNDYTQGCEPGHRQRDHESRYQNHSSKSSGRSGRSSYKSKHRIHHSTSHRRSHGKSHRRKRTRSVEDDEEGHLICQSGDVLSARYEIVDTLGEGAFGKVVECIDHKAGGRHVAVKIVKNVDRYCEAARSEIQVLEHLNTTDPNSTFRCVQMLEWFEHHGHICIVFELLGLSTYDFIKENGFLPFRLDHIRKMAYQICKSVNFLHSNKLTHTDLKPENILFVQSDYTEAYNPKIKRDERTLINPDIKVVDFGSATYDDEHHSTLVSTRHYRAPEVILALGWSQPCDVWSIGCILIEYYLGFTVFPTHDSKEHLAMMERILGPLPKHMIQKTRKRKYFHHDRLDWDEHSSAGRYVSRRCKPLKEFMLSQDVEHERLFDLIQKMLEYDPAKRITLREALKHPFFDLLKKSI

CAMK2D (human) = CAMK2D (human) (UniProt Q13557)
CAMK2A (human) = CAMK2A (human) (UniProt Q9UQM7)
CDK6 CCND3 (human) = CDK6 CCND3 (human) (UniProt P30281+Q00534)
MAP3K9 (human) = MAP3K9 (human) (UniProt P80192)
IKBKB (human) = IKBKB (human) (UniProt O14920)
DAPK2 (human) = DAPK2 (human) (UniProt Q9UIK4)
Chain of DAPK2 (human) (Q9UIK4 whole entry, looked up): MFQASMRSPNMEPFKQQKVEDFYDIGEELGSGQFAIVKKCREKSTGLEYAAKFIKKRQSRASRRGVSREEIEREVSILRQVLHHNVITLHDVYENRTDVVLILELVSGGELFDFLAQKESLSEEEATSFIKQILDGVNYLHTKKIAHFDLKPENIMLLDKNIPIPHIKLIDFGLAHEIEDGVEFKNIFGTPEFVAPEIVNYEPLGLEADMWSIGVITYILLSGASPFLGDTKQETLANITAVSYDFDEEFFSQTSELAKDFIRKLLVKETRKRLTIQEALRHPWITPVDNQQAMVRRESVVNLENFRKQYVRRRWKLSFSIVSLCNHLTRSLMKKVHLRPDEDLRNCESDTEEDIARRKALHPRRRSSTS

STK11 (human) = STK11 (human) (UniProt Q15831)
PAK2 (human) = PAK2 (human) (UniProt Q13177)
PAK7 (human) = PAK7 (human) (UniProt Q9P286)

Chain of CAMK1G (human) (Q96NX5 whole entry, looked up): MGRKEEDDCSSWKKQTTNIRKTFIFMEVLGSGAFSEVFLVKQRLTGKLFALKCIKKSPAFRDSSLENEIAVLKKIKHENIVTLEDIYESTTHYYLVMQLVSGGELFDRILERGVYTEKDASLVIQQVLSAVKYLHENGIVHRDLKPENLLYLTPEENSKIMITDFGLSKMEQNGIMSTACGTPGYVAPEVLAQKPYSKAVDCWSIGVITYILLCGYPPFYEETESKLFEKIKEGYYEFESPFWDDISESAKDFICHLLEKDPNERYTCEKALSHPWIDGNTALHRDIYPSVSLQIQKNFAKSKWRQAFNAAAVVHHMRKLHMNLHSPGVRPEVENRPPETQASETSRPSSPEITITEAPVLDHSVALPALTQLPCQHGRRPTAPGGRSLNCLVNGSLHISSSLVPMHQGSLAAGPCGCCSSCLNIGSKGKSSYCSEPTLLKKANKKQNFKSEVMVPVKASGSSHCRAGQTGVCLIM
Chain of TSSK2 (human) (Q96PF2 whole entry, looked up): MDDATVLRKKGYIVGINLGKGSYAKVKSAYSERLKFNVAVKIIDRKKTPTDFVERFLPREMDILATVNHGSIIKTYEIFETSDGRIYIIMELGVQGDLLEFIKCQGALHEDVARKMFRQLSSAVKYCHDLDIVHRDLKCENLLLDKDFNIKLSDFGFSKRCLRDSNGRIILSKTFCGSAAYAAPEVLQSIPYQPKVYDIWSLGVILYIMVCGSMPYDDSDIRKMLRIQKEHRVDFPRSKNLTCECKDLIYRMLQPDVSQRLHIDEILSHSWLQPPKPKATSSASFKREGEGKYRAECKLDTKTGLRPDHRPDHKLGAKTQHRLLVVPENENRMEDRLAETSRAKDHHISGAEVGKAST

`CCCNC(=O)Nc1ccc(Oc2ncnc3cc(OC)c(OC)cc23)cc1Cl` was tested, and the residual activity (TSSK2 (human)) was 98.7%, the residual activity (PDGFRA (human)) was 92.2% and the residual activity (IRAK4 (human)) was 92%. It also gave a residual activity (STK3 (human)) of 85%, a residual activity (CAMK1G (human)) of 103% and a residual activity (SYK (human)) of 97.5%. It also gave a residual activity (TAOK3 (human)) of 95.9%, a residual activity (PRKACA (human)) of 99.7% and a residual activity (CDK2 CCNA2 (human)) of 92.8%. The residual activity (CDK3 CCNE1 (human)) was 94%, the residual activity (SLK (human)) was 80% and the residual activity (HCK (human)) was 88.7%. For the same compound, the residual activity (TBK1 (human)) was 90%, the residual activity (EPHB2 (human)) was 90.8% and the residual activity (AKT2 (human)) was 89.7%. For the same compound, the residual activity (MKNK2 (human)) was 81.3%, the residual activity (PRKCB2 (human)) was 93.6% and the residual activity (PRKG2 (human)) was 97%. The residual activity (STK10 (human)) was 35%, the residual activity (TGFBR2 (human)) was 109% and the residual activity (CAMK2B (human)) was 94.9%. The residual activity (PRKX (human)) was 100%, the residual activity (CHEK1 (human)) was 77% and the residual activity (DAPK1 (human)) was 104%. The residual activity (FLT3 (human)) was 82.1%, the residual activity (ROCK1 (human)) was 99.7% and the residual activity (PRKCA (human)) was 99.3%. For the same compound, the residual activity (JAK2 JH1 JH2 (human)) was 96.9%, the residual activity (TYRO3 (human)) was 102% and the residual activity (TGFBR1 (human)) was 102%. It also gave a residual activity (CDK4 CCND1 (human)) of 102%, a residual activity (INSRR (human)) of 98.4% and a residual activity (CLK1 (human)) of 96.2%. The residual activity (CAMK2D (human)) was 89.4%, the residual activity (CAMK2A (human)) was 97.5% and the residual activity (CDK6 CCND3 (human)) was 89.5%. The residual activity (MAP3K9 (human)) was 88.9%, the residual activity (IKBKB (human)) was 100% and the residual activity (DAPK2 (human)) was 108%. The residual activity (STK11 (human)) was 87.3%, the residual activity (PAK2 (human)) was 81.4% and the residual activity (PAK7 (human)) was 84.5%.

In the case of `NC(=O)c1ccc(N(C(N)=O)c2c(F)cccc2F)nc1-c1ccc(F)cc1F`, the residual activity (TSSK2 (human)) is reported as 88.6%, the residual activity (PDGFRA (human)) is reported as 102% and the residual activity (IRAK4 (human)) is reported as 87.5%. The residual activity (STK3 (human)) was 94.1%, the residual activity (CAMK1G (human)) was 108% and the residual activity (SYK (human)) was 110%. It also gave a residual activity (TAOK3 (human)) of 95.7%, a residual activity (PRKACA (human)) of 101% and a residual activity (CDK2 CCNA2 (human)) of 87.8%. For the same compound, the residual activity (CDK3 CCNE1 (human)) was 94.7%, the residual activity (SLK (human)) was 90.7% and the residual activity (HCK (human)) was 89.5%. The residual activity (TBK1 (human)) was 106%, the residual activity (EPHB2 (human)) was 107% and the residual activity (AKT2 (human)) was 118%. For the same compound, the residual activity (MKNK2 (human)) was 101%, the residual activity (PRKCB2 (human)) was 94.6% and the residual activity (PRKG2 (human)) was 98.1%. It also gave a residual activity (STK10 (human)) of 93.8%, a residual activity (TGFBR2 (human)) of 102% and a residual activity (CAMK2B (human)) of 104%. It also gave a residual activity (PRKX (human)) of 123%, a residual activity (CHEK1 (human)) of 89.2% and a residual activity (DAPK1 (human)) of 98.2%. For the same compound, the residual activity (FLT3 (human)) was 97.2%, the residual activity (ROCK1 (human)) was 108% and the residual activity (PRKCA (human)) was 86%. The residual activity (JAK2 JH1 JH2 (human)) was 107%, the residual activity (TYRO3 (human)) was 101% and the residual activity (TGFBR1 (human)) was 96.7%. For the same compound, the residual activity (CDK4 CCND1 (human)) was 96.8%, the residual activity (INSRR (human)) was 102% and the residual activity (CLK1 (human)) was 108%. It also gave a residual activity (CAMK2D (human)) of 87.3%, a residual activity (CAMK2A (human)) of 90.9% and a residual activity (CDK6 CCND3 (human)) of 119%. For the same compound, the residual activity (MAP3K9 (human)) was 112%, the residual activity (IKBKB (human)) was 94.8% and the residual activity (DAPK2 (human)) was 86.8%. It also gave a residual activity (STK11 (human)) of 99.5%, a residual activity (PAK2 (human)) of 101% and a residual activity (PAK7 (human)) of 96.4%.

With `CC(C)n1cnc2c(Nc3cccc(Cl)c3)nc(NCCO)nc21` the residual activity (TSSK2 (human)) was 107%, the residual activity (PDGFRA (human)) was 96.4% and the residual activity (IRAK4 (human)) was 95.2%. For the same compound, the residual activity (STK3 (human)) was 94.6%, the residual activity (CAMK1G (human)) was 98.7% and the residual activity (SYK (human)) was 85.1%. For the same compound, the residual activity (TAOK3 (human)) was 91.8%, the residual activity (PRKACA (human)) was 99.5% and the residual activity (CDK2 CCNA2 (human)) was 42%. The residual activity (CDK3 CCNE1 (human)) was 76.9%, the residual activity (SLK (human)) was 84.8% and the residual activity (HCK (human)) was 78%. For the same compound, the residual activity (TBK1 (human)) was 89.2%, the residual activity (EPHB2 (human)) was 89.8% and the residual activity (AKT2 (human)) was 92.4%. For the same compound, the residual activity (MKNK2 (human)) was 94.8%, the residual activity (PRKCB2 (human)) was 99.7% and the residual activity (PRKG2 (human)) was 82.7%. For the same compound, the residual activity (STK10 (human)) was 86.9%, the residual activity (TGFBR2 (human)) was 70.2% and the residual activity (CAMK2B (human)) was 95.9%. It also gave a residual activity (PRKX (human)) of 96.4%, a residual activity (CHEK1 (human)) of 87.1% and a residual activity (DAPK1 (human)) of 78.8%. It also gave a residual activity (FLT3 (human)) of 15.1%, a residual activity (ROCK1 (human)) of 101% and a residual activity (PRKCA (human)) of 78.6%. The residual activity (JAK2 JH1 JH2 (human)) was 101%, the residual activity (TYRO3 (human)) was 92.7% and the residual activity (TGFBR1 (human)) was 97.7%. For the same compound, the residual activity (CDK4 CCND1 (human)) was 77%, the residual activity (INSRR (human)) was 82.5% and the residual activity (CLK1 (human)) was 77.9%. It also gave a residual activity (CAMK2D (human)) of 84.2%, a residual activity (CAMK2A (human)) of 99.1% and a residual activity (CDK6 CCND3 (human)) of 89.7%. It also gave a residual activity (MAP3K9 (human)) of 27.2%, a residual activity (IKBKB (human)) of 102% and a residual activity (DAPK2 (human)) of 92.8%. For the same compound, the residual activity (STK11 (human)) was 76.1%, the residual activity (PAK2 (human)) was 106% and the residual activity (PAK7 (human)) was 80.4%.
